Measured values taken from the NIST ThermoML archive (doi:10.1021/acs.jced.9b00422).
Numbers after ± are expanded uncertainties.

Test: wn = mass fraction of the nth substance listed
Details: 323 K, 101.3 kPa, Liquid, Pycnometric method

[Ca+2].[Cl-].[Cl-] [calcium chloride] + O
mass density (w1 = 0.568): 1538.2 ± 6.6 kg/m3

[Cl-].[Na+] [sodium chloride] + O
mass density (w1 = 0.2722): 1175 ± 2.4 kg/m3

[Cl-].[Cl-].[Zn+2] [zinc chloride] + O
mass density (w1 = 0.8225): 2274.8 ± 7 kg/m3
